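Five compound concentrations were applied to cells in 96-well plates for 48 hours; endpoints were derived by simple linear interpolation of the resulting dose-response curve. The concentration for full growth arrest is given as TGI.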 *1 amine or outer side, *2 acyl side, *3 side chain or, on linkers, in order; H or OH if unused. Where a SMILES comes first, the peptide text is derived from it. Bridges are numbered along the chain shown (N, C = ends). [ ]: non-standard residue; d: D form. X35 = CC[C@H](C)[C@@H](N[*:1])[C@@H](O)CC(=O)O[C@H](C(=O)[C@H](C)C(=O)[*:2])C(C)C; NMeY = CN[C@@H](Cc1ccc(O)cc1)C(=O)O
Legend:
Assay in all cases: growth of human tumour cells (NCI), 48 h
[1] = system: NCI-H23 lung
[2] = system: KM12 colon
[3] = system: A549 NSCLC
[4] = system: UACC-257 melanoma
[5] = system: MALME-3M melanoma
[6] = system: SK-OV-3 ovarian
[7] = system: SR leukemia
[8] = system: HT29 colon
[9] = system: DU-145 prostate
[10] = system: M14 melanoma
[11] = system: EKVX NSCLC
[12] = system: TK-10 renal
[13] = system: MDA-N
[14] = system: SK-MEL-2 melanoma
[15] = system: PC-3 prostate

Row | Compound | TGI [1] [µM] | TGI [2] [µM] | TGI [3] [µM] | TGI [4] [µM] | TGI [5] [µM] | TGI [6] [µM] | TGI [7] [µM] | TGI [8] [µM] | TGI [9] [µM] | TGI [10] [µM] | TGI [11] [µM] | TGI [12] [µM] | TGI [13] [µM] | TGI [14] [µM] | TGI [15] [µM]
1 | C/C(=C\COP(=O)(O)OP(=O)(O)O)CCCCCCOCc1ccccc1 | > 100 | > 100 | > 100 | > 100 | > 100 | > 100 | > 100 | > 100 | > 100 | > 100 | > 100 | > 100 | – | – | –
2 | Cc1ccc2[nH]c3c(c(=O)n(C)c(=O)n3C)c2c1 | > 100 | > 100 | > 100 | > 100 | > 100 | > 100 | > 100 | > 100 | > 100 | > 100 | > 100 | > 100 | > 100 | > 100 | –
3 | CCO/C(O)=C(/C(=N)N1CCOCC1)C(=O)NC(C)C | > 100 | > 100 | > 100 | > 100 | > 100 | > 100 | – | > 100 | > 100 | > 100 | > 100 | > 100 | > 100 | > 100 | > 100
4 | N=c1oc2ccccc2cc1C(=O)Nc1cccc2ccccc12 | > 100 | > 100 | > 100 | > 100 | > 100 | > 100 | > 100 | > 100 | > 100 | > 100 | – | – | > 100 | > 100 | > 100
5 | CC[C@H](C)[C@H]1NC(=O)[C@@H](N)[C@@H](C)OC(=O)[C@H](Cc2ccc(OC)cc2)N(C)C(=O)[C@@H]2CCCN2C(=O)[C@H](CC(C)C)NC(=O)[C@@H](C)C(=O)[C@H](C(C)C)OC(=O)C[C@@H]1O (H-T[X35]LP[NMeY](Me); ester 1-C) | > 100 | 68.1 | > 100 | > 100 | > 100 | > 100 | > 100 | 38.8 | – | 32.3 | > 100 | > 100 | – | > 100 | > 100
6 | O=c1[nH]c(=O)c2c([nH]1)[nH]c1ccc(Br)cc12 | > 100 | 79.3 | > 100 | > 100 | > 100 | 56.4 | > 100 | > 100 | > 100 | > 100 | > 100 | > 100 | > 100 | > 100 | –
7 | CC1(C)Cc2c(sc3[nH]c(=S)[nH]c(=S)c23)CS1 | > 100 | > 100 | > 100 | 73.8 | 75.6 | 99.7 | > 100 | > 100 | > 100 | > 100 | – | > 100 | > 100 | > 100 | > 100
8 | CC(Br)CN1CCOCC1 (stereo not drawn) | > 100 | > 100 | > 100 | > 100 | > 100 | > 100 | > 100 | > 100 | > 100 | > 100 | > 100 | > 100 | – | > 100 | > 100
